Experimental data: US11123337B2, “4-methylsulfonyl-substituted piperidine urea compounds” (MYOKARDIA, INC., priority 2015, dated 2021)

Target: bovine cardiac myosin (Bos taurus, UniProt Q9BE39)
Assay: Myosin activation assay (PK/LDH-coupled ATPase, bovine cardiac myofibrils)
Type: biochemical
Details: AC20 = concentration at which total response is increased by twenty percent
Procedure: Small molecule agents were assessed for their ability to activate the enzymatic activity of bovine cardiac myosin using a biochemical assay that couples the release of ADP (adenosine diphosphate) from cardiac myosin to an enzymatic coupling system consisting of pyruvate kinase and lactate dehydrogenase (PK/LDH) and monitoring the absorbance decrease of NADH (at 340 nm) as a function of time. PK converts ADP to ATP (adenosine triphosphate) by converting PEP (phosphoenolpyruvate) to pyruvate. Pyruvate is then converted to lactate by LDH by converting NADH (nicotinamide adenine dinucleotide) to NAD (oxidized nicotinamide adenine dinucleotide). The source of cardiac myosin was from bovine heart in the form of skinned myofibrils. Prior to testing small molecule agents, the bovine myofibrils were assessed for their calcium responsiveness and the calcium concentration that achieves either a 50% (pCa50 or pCa=˜6) or <5% (pCa=10) activation of the myofibril system was chosen as the final condition for assessing the activation activity of the small molecule agents. All enzymatic activity was measured in a buffered solution containing 12 mM PIPES (piperazine-N,N′-bis(2-ethanesulfonic acid), 2 mM magnesium chloride at pH 6.8 (PM12 buffer). Final assay conditions were 1 mg/mL of bovine cardiac myofibrils, 0.4 mM PK/LDH, 50 uM ATP, 0.1 mg/mL BSA (bovine serum albumin), 10 ppm antifoam, 2 mM BME, 0.5 mM NADH, 1.5 mM PEP at the desired free calcium concentration required to achieve either 50% or <5% activation of the myofibrils.
A dilution series of compound was created in DMSO such that the final desired concentration of compound would be achieved in a volume of […] with a fixed DMSO concentration of 3.3% (v/v). Typically a 1 μL of the dilution series was added to a 384 well plate to achieve a 10 point dose response. Following the addition of 14 μL of a solution containing bovine cardiac myofibrils, PK/LDH and a solution of calcium (that achieved the desired activation), the enzymatic reaction was started with the addition of 15 μL of a solution containing ATP, PEP and NADH. The reaction progress was followed in a PerkinElmer Envision plate reader at ambient temperature using clear bottom plates. The plate reader was configured to read absorbance at 340 nm in kinetics mode for 15 minutes. Data were recorded as the slope of the absorbance response to time. The slopes of the absorbance response as a function of time were normalized to slopes on the plate containing DMSO. This normalized rate was then plotted as a function of small molecule concentration and the data was fitted to a four-parameter fit using EXCEL XLfit. The concentration at which the total response is increased by twenty or fifty percent is reported as AC20 or AC50.

Chain of bovine cardiac myosin (Q9BE39 whole entry): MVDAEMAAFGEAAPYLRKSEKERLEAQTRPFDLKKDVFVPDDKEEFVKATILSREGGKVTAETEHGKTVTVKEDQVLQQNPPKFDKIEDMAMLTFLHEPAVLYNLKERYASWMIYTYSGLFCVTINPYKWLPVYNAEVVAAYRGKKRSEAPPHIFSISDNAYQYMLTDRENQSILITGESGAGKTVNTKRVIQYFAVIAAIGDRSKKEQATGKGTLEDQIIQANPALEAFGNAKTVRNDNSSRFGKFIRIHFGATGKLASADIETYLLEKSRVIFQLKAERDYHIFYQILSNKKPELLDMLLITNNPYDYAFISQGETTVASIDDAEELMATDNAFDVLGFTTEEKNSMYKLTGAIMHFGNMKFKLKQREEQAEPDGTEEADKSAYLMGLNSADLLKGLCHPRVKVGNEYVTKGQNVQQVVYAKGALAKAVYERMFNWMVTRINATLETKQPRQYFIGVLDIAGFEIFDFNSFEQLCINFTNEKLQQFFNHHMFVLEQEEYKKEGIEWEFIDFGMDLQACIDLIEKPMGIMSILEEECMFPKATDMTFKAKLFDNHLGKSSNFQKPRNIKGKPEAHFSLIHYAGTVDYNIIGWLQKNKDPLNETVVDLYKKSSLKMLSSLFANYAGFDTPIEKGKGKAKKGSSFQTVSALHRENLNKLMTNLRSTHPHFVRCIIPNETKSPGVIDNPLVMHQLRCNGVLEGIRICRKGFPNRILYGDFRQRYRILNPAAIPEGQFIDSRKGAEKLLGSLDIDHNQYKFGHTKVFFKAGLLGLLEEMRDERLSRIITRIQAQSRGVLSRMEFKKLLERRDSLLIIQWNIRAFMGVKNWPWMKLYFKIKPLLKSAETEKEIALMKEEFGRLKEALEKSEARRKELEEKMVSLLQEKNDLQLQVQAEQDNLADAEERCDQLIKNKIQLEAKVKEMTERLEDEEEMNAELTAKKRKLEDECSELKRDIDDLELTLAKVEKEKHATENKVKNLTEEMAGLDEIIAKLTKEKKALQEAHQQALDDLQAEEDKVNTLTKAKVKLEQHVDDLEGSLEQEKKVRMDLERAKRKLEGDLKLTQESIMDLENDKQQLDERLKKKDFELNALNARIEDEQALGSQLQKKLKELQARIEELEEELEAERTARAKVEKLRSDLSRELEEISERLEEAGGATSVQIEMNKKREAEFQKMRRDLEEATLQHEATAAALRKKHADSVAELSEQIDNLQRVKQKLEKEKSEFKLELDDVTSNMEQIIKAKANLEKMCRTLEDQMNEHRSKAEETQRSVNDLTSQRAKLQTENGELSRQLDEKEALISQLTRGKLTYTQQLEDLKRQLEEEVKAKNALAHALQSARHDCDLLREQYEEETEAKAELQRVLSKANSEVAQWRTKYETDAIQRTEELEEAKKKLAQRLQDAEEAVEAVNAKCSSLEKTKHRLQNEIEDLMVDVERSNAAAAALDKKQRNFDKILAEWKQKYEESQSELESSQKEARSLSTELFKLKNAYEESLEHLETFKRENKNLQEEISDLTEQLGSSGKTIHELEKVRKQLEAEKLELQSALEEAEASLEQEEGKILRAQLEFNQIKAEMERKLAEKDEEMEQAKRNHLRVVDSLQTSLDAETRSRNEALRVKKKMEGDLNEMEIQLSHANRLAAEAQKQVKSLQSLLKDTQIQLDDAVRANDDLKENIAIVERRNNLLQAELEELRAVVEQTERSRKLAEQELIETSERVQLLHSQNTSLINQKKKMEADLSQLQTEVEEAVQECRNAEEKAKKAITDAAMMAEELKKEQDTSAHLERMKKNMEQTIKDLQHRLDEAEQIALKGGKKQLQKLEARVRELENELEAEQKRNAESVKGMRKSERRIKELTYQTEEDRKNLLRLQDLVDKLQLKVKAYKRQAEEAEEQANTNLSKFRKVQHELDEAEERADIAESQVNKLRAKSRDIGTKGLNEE
Chain of bovine cardiac myosin (P85100 whole entry partner): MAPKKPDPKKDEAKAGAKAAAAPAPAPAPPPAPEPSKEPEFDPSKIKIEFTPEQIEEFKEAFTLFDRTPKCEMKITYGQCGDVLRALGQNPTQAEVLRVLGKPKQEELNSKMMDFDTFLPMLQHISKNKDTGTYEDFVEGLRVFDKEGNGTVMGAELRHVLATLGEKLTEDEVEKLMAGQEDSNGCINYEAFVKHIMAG
Chain of bovine cardiac myosin (Q3SZE5 whole entry partner): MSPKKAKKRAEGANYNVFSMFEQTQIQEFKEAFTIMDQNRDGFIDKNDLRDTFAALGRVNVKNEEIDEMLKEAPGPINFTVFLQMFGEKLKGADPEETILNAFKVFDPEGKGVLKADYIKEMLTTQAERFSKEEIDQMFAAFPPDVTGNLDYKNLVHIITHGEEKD

CC(C)n1cc(S(=O)(=O)CC2CCN(C(=O)Nc3ccncc3)CC2)cn1 [Compound 1, 4-(((1-Isopropyl-1H-pyrazol-4-yl)sulfonyl)methyl)-N-(pyridin-4-yl)piperidine-1-carboxamide]
Myosin Activation (AC20): + (+ represents myosin activation value AC20 > 5 μM)

N#Cc1cc(C(F)(F)F)ccc1S(=O)(=O)C(F)(F)C1CCN(C(=O)Nc2ccnnc2)CC1 [Compound 3, 4-(((2-Cyano-4-(trifluoromethyl)phenyl)sulfonyl)difluoromethyl)-N-(pyridazin-4-yl)piperidine-1-carboxamide]
Myosin Activation (AC20): +++ (+++ represents myosin activation value AC20 < 2 μM)

O=C(Nc1ccnnc1)N1CCC(C(F)(F)S(=O)(=O)c2ccccc2C(F)F)CC1 [Compound 4, 4-(((2-(Difluoromethyl)phenyl)sulfonyl)difluoromethyl)-N-(pyridazin-4-yl)piperidine-1-carboxamide]
Myosin Activation (AC20): ++ (++ represents myosin activation value AC20 from 2 μM-5 μM)

CC(F)(C1CCN(C(=O)Nc2ccon2)CC1)S(=O)(=O)c1ccc(C(F)(F)F)cc1 (stereo not shown) [Compound 8, 4-(1-Fluoro-1-((4-(trifluoromethyl)phenyl)sulfonyl)ethyl)-N-(isoxazol-3-yl)piperidine-1-carboxamide]
Myosin Activation (AC20): +++ (+++ represents myosin activation value AC20 < 2 μM)

COc1ccc(S(=O)(=O)C(C)(F)C2CCN(C(=O)Nc3ccnnc3)CC2)cn1 (stereo not shown) [Compound 9, 4-(1-fluoro-1-((6-methoxypyridin-3-yl)sulfonyl)ethyl)-N-(pyridazin-4-yl)piperidine-1-carboxamide]
Myosin Activation (AC20): +++ (+++ represents myosin activation value AC20 < 2 μM)

CC(F)(C1CCN(C(=O)Cc2ccnnc2)CC1)S(=O)(=O)c1cccc(F)c1 (stereo not shown) [Compound 10, 1-(4-(1-Fluoro-1-((3-fluorophenyl)sulfonyl)ethyl)piperidin-1-yl)-2-(pyridazin-4-yl)ethan-1-one]
Myosin Activation (AC20): + (+ represents myosin activation value AC20 > 5 μM)

CC(F)(C1CCN(C(=O)Nc2ccno2)CC1)S(=O)(=O)c1cccc(F)c1 (stereo not shown) [Compound 11, 4-(1-Fluoro-1-((3-fluorophenyl)sulfonyl)ethyl)-N-(isoxazol-5-yl)piperidine-1-carboxamide]
Myosin Activation (AC20): ++ (++ represents myosin activation value AC20 from 2 μM-5 μM)

Cc1cc(NC(=O)N2CCC(C(C)(F)S(=O)(=O)c3cccc(F)c3)CC2)cnn1 (stereo not shown) [Compound 12, 4-(1-Fluoro-1-((3-fluorophenyl)sulfonyl)ethyl)-N-(6-methylpyridazin-4-yl)piperidine-1-carboxamide]
Myosin Activation (AC20): + (+ represents myosin activation value AC20 > 5 μM)

CC(F)(C1CCN(C(=O)Nc2ccnnc2)CC1)S(=O)(=O)c1ccc(OC(F)F)nc1 (stereo not shown) [Compound 14, 4-(1-((6-(Difluoromethoxy)pyridin-3-yl)sulfonyl)-1-fluoroethyl)-N-(pyridazin-4-yl)piperidine-1-carboxamide]
Myosin Activation (AC20): +++ (+++ represents myosin activation value AC20 < 2 μM)

Cn1cc(S(=O)(=O)C(C)(F)C2CCN(C(=O)Nc3ccon3)CC2)c(C(F)(F)F)n1 (stereo not shown) [Compound 16, 4-(1-Fluoro-1-((1-methyl-3-(trifluoromethyl)-1H-pyrazol-4-yl)sulfonyl)ethyl)-N-(isoxazol-3-yl)piperidine-1-carboxamide]
Myosin Activation (AC20): ++ (++ represents myosin activation value AC20 from 2 μM-5 μM)

Cn1nc(C(F)F)cc1S(=O)(=O)C(C)(F)C1CCN(C(=O)Nc2ccnnc2)CC1 (stereo not shown) [Compound 17, 4-(1-((3-(difluoromethyl)-1-methyl-1H-pyrazol-5-yl)sulfonyl)-1-fluoroethyl)-N-(pyridazin-4-yl)piperidine-1-carboxamide]
Myosin Activation (AC20): +++ (+++ represents myosin activation value AC20 < 2 μM)

Cn1cc(S(=O)(=O)C(C)(F)C2CCN(C(=O)Nc3ccon3)CC2)c(Cl)n1 (stereo not shown) [Compound 19, 4-(1-((3-Chloro-1-methyl-1H-pyrazol-4-yl)sulfonyl)-1-fluoroethyl)-N-(isoxazol-3-yl)piperidine-1-carboxamide]
Myosin Activation (AC20): + (+ represents myosin activation value AC20 > 5 μM)

Cn1cc(S(=O)(=O)[C@](C)(F)C2CCN(C(=O)Nc3ccon3)CC2)c(C(F)F)n1 [Compound 21, (S)-4-(1-((3-(Difluoromethyl)-1-methyl-1H-pyrazol-4-yl)sulfonyl)-1-fluoroethyl)-N-(isoxazol-3-yl)piperidine-1-carboxamide]
Myosin Activation (AC20): + (+ represents myosin activation value AC20 > 5 μM)

O=C(Nc1ccnnc1)N1CCC(C(F)(F)S(=O)(=O)c2cccn3ccnc23)CC1 [Compound 22, 4-(Difluoro(imidazo[1,2-a]pyridin-8-ylsulfonyl)methyl)-N-(pyridazin-4-yl)piperidine-1-carboxamide]
Myosin Activation (AC20): + (+ represents myosin activation value AC20 > 5 μM)

Cc1cc(S(=O)(=O)C(F)(F)C2CCN(C(=O)Nc3ccnnc3)CC2)n(C)n1 [Compound 23, 4-(((1,3-Dimethyl-1H-pyrazol-5-yl)sulfonyl)difluoromethyl)-N-(pyridazin-4-yl)piperidine-1-carboxamide]
Myosin Activation (AC20): ++ (++ represents myosin activation value AC20 from 2 μM-5 μM)

Cn1nc(C2CC2)cc1S(=O)(=O)C(F)(F)C1CCN(C(=O)Nc2ccnnc2)CC1 [Compound 24, 4-(((3-Cyclopropyl-1-methyl-1H-pyrazol-5-yl)sulfonyl)difluoromethyl)-N-(pyridazin-4-yl)piperidine-1-carboxamide]
Myosin Activation (AC20): ++ (++ represents myosin activation value AC20 from 2 μM-5 μM)

O=C(Nc1ccnnc1)N1CCC(C(F)(F)S(=O)(=O)c2ccccc2CO)CC1 [Compound 25, 4-(Difluoro((2-(hydroxymethyl)phenyl)sulfonyl)methyl)-N-(pyridazin-4-yl)piperidine-1-carboxamide]
Myosin Activation (AC20): ++ (++ represents myosin activation value AC20 from 2 μM-5 μM)

Cn1cc(S(=O)(=O)C(C)(C)C2CCN(C(=O)Nc3ccon3)CC2)c(Cl)n1 [Compound 27, 4-(2-((3-Chloro-1-methyl-1H-pyrazol-4-yl)sulfonyl)propan-2-yl)-N-(isoxazol-3-yl)piperidine-1-carboxamide]
Myosin Activation (AC20): + (+ represents myosin activation value AC20 > 5 μM)

O=C(Nc1ccnnc1)N1CCC(C2(S(=O)(=O)c3cccc(F)c3)CC(F)(F)C2)CC1 [Compound 28, 4-(3,3-Difluoro-1-((3-fluorophenyl)sulfonyl)cyclobutyl)-N-(pyridazin-4-yl)piperidine-1-carboxamide]
Myosin Activation (AC20): ++ (++ represents myosin activation value AC20 from 2 μM-5 μM)

C[C@H](O)c1cc(NC(=O)N2CCC([C@@](C)(F)S(=O)(=O)c3cn(C)nc3C(F)F)CC2)ccn1 [Compound 29, 4-((S)-1-((3-(Difluoromethyl)-1-methyl-1H-pyrazol-4-yl)sulfonyl)-1-fluoroethyl)-N-(2-((S)-1-hydroxyethyl)pyridin-4-yl)piperidine-1-carboxamide]
Myosin Activation (AC20): + (+ represents myosin activation value AC20 > 5 μM)

CC(C)(C1(F)CCN(C(=O)Nc2ccnnc2)CC1)S(=O)(=O)c1cccc(F)c1 [Compound 30, 4-Fluoro-4-(2-((3-fluorophenyl)sulfonyl)propan-2-yl)-N-(pyridazin-4-yl)piperidine-1-carboxamide]
Myosin Activation (AC20): ++ (++ represents myosin activation value AC20 from 2 μM-5 μM)

CC(C1CCN(C(=O)Nc2ccncc2)CC1)S(=O)(=O)c1cccc(F)c1 (stereo not shown) [Compound 31, 4-(1-((3-fluorophenyl)sulfonyl)ethyl)-N-(pyridin-4-yl)piperidine-1-carboxamide]
Myosin Activation (AC20): ++ (++ represents myosin activation value AC20 from 2 μM-5 μM)

O=C(Nc1ccncc1)N1CCC(CS(=O)(=O)c2cccc(F)c2)CC1 [Compound 33, 4-(((3-fluorophenyl)sulfonyl)methyl)-N-(pyridin-4-yl)piperidine-1-carboxamide]
Myosin Activation (AC20): + (+ represents myosin activation value AC20 > 5 μM)

O=C(Nc1ccnnc1)N1CCC(CS(=O)(=O)c2cccc(F)c2)CC1 [Compound 34, 4-(((3-fluorophenyl)sulfonyl)methyl)-N-(pyridazin-4-yl)piperidine-1-carboxamide]
Myosin Activation (AC20): + (+ represents myosin activation value AC20 > 5 μM)

O=C(Nc1ccncc1)N1CCC(C2(S(=O)(=O)c3cccc(F)c3)CC2)CC1 [Compound 35, 4-(1-((3-fluorophenyl)sulfonyl)cyclopropyl)-N-(pyridin-4-yl)piperidine-1-carboxamide]
Myosin Activation (AC20): +++ (+++ represents myosin activation value AC20 < 2 μM)
